# Data taken from patent publication US20150175655A1 (priority 2012, published 2015).
# Target: T1, NS3 genotype 3a protease (UniProt Q81258)
# T1 construct: Purified NS3 protease domain (amino acids 1-181) of the genotype 1b and 3a virus were generated as above; fused on or other part: N-terminal hexahistidine tag and rTEV protease cleavage site (vector p28-N6H-Tev-NS3(181)3)
# T1 sequence (Q81258 1033-1663): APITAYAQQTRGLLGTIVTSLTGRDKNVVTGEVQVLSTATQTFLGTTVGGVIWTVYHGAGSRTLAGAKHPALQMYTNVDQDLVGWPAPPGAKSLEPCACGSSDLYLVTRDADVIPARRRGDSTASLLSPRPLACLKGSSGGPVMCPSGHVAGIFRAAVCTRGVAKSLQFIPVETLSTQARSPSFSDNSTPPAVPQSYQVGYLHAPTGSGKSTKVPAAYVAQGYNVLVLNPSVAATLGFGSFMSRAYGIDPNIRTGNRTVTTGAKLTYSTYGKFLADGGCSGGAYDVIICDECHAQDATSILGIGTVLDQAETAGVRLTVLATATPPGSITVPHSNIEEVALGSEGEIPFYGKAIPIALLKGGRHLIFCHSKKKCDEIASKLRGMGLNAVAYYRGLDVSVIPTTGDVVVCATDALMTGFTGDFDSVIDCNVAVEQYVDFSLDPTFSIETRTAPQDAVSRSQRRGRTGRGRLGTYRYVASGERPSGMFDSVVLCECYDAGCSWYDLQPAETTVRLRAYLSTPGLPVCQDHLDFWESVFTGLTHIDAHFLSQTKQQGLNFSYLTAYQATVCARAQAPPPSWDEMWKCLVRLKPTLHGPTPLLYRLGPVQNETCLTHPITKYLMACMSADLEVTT
# Assay: Ki determination, NS3 protease genotype 3a (fluorogenic depsipeptide substrate)
# Assay type: biochemical, hepatitis C virus
# Conditions: 200 pM enzyme, 20 μM NS4A peptide, 2 μM substrate, read-out: Ki 3A
# In short: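 Refolded His-tagged NS3 protease domain (aa 1-181, genotype 3a) at 200 pM with 20 μM NS4A peptide was pre-incubated 1 h at RT with inhibitor (100 nM–5 pM, 3-fold), then 2 μM FRET depsipeptide substrate was added in HEPES/40% glycerol/10% DMSO buffer. Steady-state rates over 90-120 min (ex 340/em 490 nm) versus inhibitor concentration gave Ki.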
row,SMILES,Ki [nM]
1,"C[C@@H]1[C@@H]2CN(C(=O)[C@H](C(C)(C)C)NC(=O)O[C@@H]3C[C@@H]4C[C@@H]4[C@H]3CCCCC(F)(F)c3nc4ccccc4nc3O2)[C@@H]1C(=O)N[C@]1(C(=O)NS(=O)(=O)C2(C)CC2)C[C@H]1C(F)F [Example 82, (1aS,2aR,6S,9S,10S,11R,23aR,23bS)-6-tert-butyl-N-[(1R,2R)-2-(difluoromethyl)-1-{[(1-methylcyclopropyl)sulfonyl]carbamoyl}cyclopropyl]-19,19-difluoro-10-methyl-4,7-dioxo-1a,2,2a,4,5,6,7,10,11,19,20,21,22,23,23a,23b-hexadecahydro-1H,9H-8,11-methanocyclopropa[4′,5′]cyclopenta[1′,2′:18,19][1,10,3,6]dioxadiazacyclononade cino[11,12-b]quinoxaline-9-carboxamide]",0.04
2,"CC[C@@H]1[C@@H]2CN(C(=O)[C@H](C(C)(C)C)NC(=O)O[C@@H]3[C@H]4CC[C@H](C4)[C@H]3CCCCCc3nc4ccc(OC)cc4nc3O2)[C@@H]1C(=O)N[C@]1(C(=O)NS(=O)(=O)C2(C)CC2)C[C@H]1C(F)F [Example 37, (1R,4S,4aR,8S,11S,12S,13R,25aR)-8-tert-butyl-N-[(1R,2R)-2-(difluoromethyl)-1-{[(1-methylcyclopropyl)sulfonyl]carbamoyl}cyclopropyl]-12-ethyl-17-methoxy-6,9-dioxo-2,3,4,4a,6,7,8,9,12,13,21,22,23,24,25,25a-hexadecahydro-1H,11H-1,4:10,13-dimethanoquinoxalino[2,3-k][1,10,3,6]benzodioxadiazacyclononadecine-11-carboxamide]",0.19
3,"CC[C@@H]1[C@@H]2CN(C(=O)[C@H](C(C)(C)C)NC(=O)O[C@@H]3C[C@H]3CCCCC(F)(F)c3nc4ccc(OC)cc4nc3O2)[C@@H]1C(=O)N[C@]1(C(=O)NS(=O)(=O)C2CC2)C[C@H]1CC [Example 34, (1aR,5S,8S,9S,10R,22aR)-5-tert-butyl-N-{(1R,2R)-1-[(cyclopropylsulfonyl)carbamoyl]-2-ethylcyclopropyl}-9-ethyl-18,18-difluoro-14-methoxy-3,6-dioxo-1,1a,3,4,5,6,9,10,18,19,20,21,22,22a-tetradecahydro-8H-7,10-methanocyclopropa[18,19][1,10,3,6]dioxadiazacyclononadecino[11,12-b]quinoxaline-8-carboxamide]",0.28
4,"COc1ccc2nc3c(nc2c1)O[C@H]1CN(C(=O)[C@H](C(C)(C)C)NC(=O)O[C@@H]2C[C@H]2CCCCC3)[C@H](C(=O)N[C@]2(C(=O)NS(=O)(=O)C3(C)CC3)C[C@H]2C(F)F)[C@@H]1CC#N [Example 50, (1aR,5S,8S,9S,10R,22aR)-5-tert-butyl-9-(cyanomethyl)-N-[(1R,2R)-2-(difluoromethyl)-1-{[(1-methylcyclopropyl)sulfonyl]carbamoyl}cyclopropyl]-14-methoxy-3,6-dioxo-1,1a,3,4,5,6,9,10,18,19,20,21,22,22a-tetradecahydro-8H-7,10-methanocyclopropa[18,19][1,10,3,6]dioxadiazacyclononadecino[11,12-b]quinoxaline-8-carboxamide]",> 100
5,"CC[C@@H]1[C@@H]2CN(C(=O)[C@H](C(C)(C)C)NC(=O)O[C@@H]3CCC[C@H]3CCCCCc3nc4ccc(OC)cc4nc3O2)[C@@H]1C(=O)N[C@]1(C(=O)NS(=O)(=O)C2(C)CC2)C[C@H]1C(F)F [Example 6, (3aR,7S,10S,11S,12R,24aR)-7-tert-butyl-N-[(1R,2R)-2-(difluoromethyl)-1-{[(1-methylcyclopropyl)sulfonyl]carbamoyl}cyclopropyl]-11-ethyl-16-methoxy-5,8-dioxo-1,2,3,3a,5,6,7,8,11,12,20,21,22,23,24,24a-hexadecahydro-10H-9,12-methanocyclopenta[18,19][1,10,3,6]dioxadiazacyclononadecino[11,12-b]quinoxaline-10-carboxamide]",0.62
6,"CC[C@@H]1[C@@H]2CN(C(=O)[C@H](C(C)(C)C)NC(=O)O[C@@H]3C[C@H]3CCCCCc3nc4ccc(OC)cc4nc3O2)[C@@H]1C(=O)N[C@]1(C(=O)NS(=O)(=O)C2(Cl)CC2)C[C@H]1C(F)F [Example 75, (1aR,5S,8S,9S,10R,22aR)-5-tert-butyl-N-[(1R,2R)-1-{[(1-chlorocyclopropyl)sulfonyl]carbamoyl}-2-(difluoromethyl)cyclopropyl]-9-ethyl-14-methoxy-3,6-dioxo-1,1a,3,4,5,6,9,10,18,19,20,21,22,22a-tetradecahydro-8H-7,10-methanocyclopropa[18,19][1,10,3,6]dioxadiazacyclononadecino[11,12-b]quinoxaline-8-carboxamide]",0.12
7,"CC[C@@H]1[C@@H]2CN(C(=O)[C@H](C(C)(C)C)NC(=O)O[C@@]3(C)C[C@@H]3CCCCC(F)(F)c3nc4ccc(OC)cc4nc3O2)[C@@H]1C(=O)N[C@]1(C(=O)NS(=O)(=O)C2(C)CC2)C[C@H]1C(F)F [Example 64, (1aS,5S,8S,9S,10R,22aS)-5-tert-butyl-N-[(1R,2R)-2-(difluoromethyl)-1-{[(1-methylcyclopropyl)sulfonyl]carbamoyl}cyclopropyl]-9-ethyl-18,18-difluoro-14-methoxy-1a-methyl-3,6-dioxo-1,1a,3,4,5,6,9,10,18,19,20,21,22,22a-tetradecahydro-8H-7,10-methanocyclopropa[18,19][1,10,3,6]dioxadiazacyclononadecino[11,12-b]quinoxaline-8-carboxamide]",1.2
8,"CC[C@@H]1[C@@H]2CN(C(=O)[C@H](C(C)(C)C)NC(=O)O[C@@H]3C[C@@H]4C[C@@H]4[C@H]3CCCCC(F)(F)c3nc4ccc(OC)cc4nc3O2)[C@@H]1C(=O)N[C@]1(C(=O)NS(=O)(=O)C2(C)CC2)C[C@H]1C(F)F [Example 61, (1aS,2aR,6S,9S,10S,11R,23aR,23bS)-6-tert-butyl-N-[(1R,2R)-2-(difluoromethyl)-1-{[(1-methylcyclopropyl)sulfonyl]carbamoyl}cyclopropyl]-10-ethyl-19,19-difluoro-15-methoxy-4,7-dioxo-1a,2,2a,4,5,6,7,10,11,19,20,21,22,23,23a,23b-hexadecahydro-1H,9H-8,11-methanocyclopropa[4′,5′]cyclopenta[1′,2′:18,19][1,10,3,6]dioxadiazacyclononade cino[11,12-b]quinoxaline-9-carboxamide]",0.09

# Same assay, conditions: read-out: Ki 3A, 200 pM enzyme, 20 μM NS4A peptide, 2 μM substrate
row,SMILES,Ki [nM]
1,"COc1ccc2nc3c(nc2c1)O[C@H]1CN(C(=O)[C@H](C(C)(C)C)NC(=O)O[C@@H]2C[C@H]2CCCCC3)[C@H](C(=O)N[C@]2(C(=O)NS(=O)(=O)C3CC3)C[C@H]2C(F)F)[C@@H]1C [Example 19, (1aR,5S,8S,9S,10R,22aR)-5-tert-butyl-N-[(1R,2R)-1-[(cyclopropylsulfonyl)carbamoyl]-2-(difluoromethyl)cyclopropyl]-14-methoxy-9-methyl-3,6-dioxo-1,1a,3,4,5,6,9,10,18,19,20,21,22,22a-tetradecahydro-8H-7,10-methanocyclopropa[18,19][1,10,3,6]dioxadiazacyclononadecino[11,12-b]quinoxaline-8-carboxamide]",0.13
2,"COc1ccc2nc3c(nc2c1)O[C@H]1CN(C(=O)[C@H](C(C)(C)C)NC(=O)O[C@@H]2C[C@@H]4C[C@@H]4[C@H]2CCCCC3)[C@H](C(=O)N[C@]2(C(=O)NS(=O)(=O)C3(C)CC3)C[C@H]2C(F)F)[C@@H]1C [Example 49, (1aS,2aR,6S,9S,10S,11R,23aR,23bS)-6-tert-butyl-N-[(1R,2R)-2-(difluoromethyl)-1-{[(1-methylcyclopropyl)sulfonyl]carbamoyl}cyclopropyl]-15-methoxy-10-methyl-4,7-dioxo-1a,2,2a,4,5,6,7,10,11,19,20,21,22,23,23a,23b-hexadecahydro-1H,9H-8,11-methanocyclopropa[4′,5′]cyclopenta[1′,2′:18,19][1,10,3,6]dioxadiazacyclononade cino[11,12-b]quinoxaline-9-carboxamide]",0.07
3,"CC[C@@H]1C[C@]1(NC(=O)[C@@H]1[C@H](C)[C@@H]2CN1C(=O)[C@H](C(C)(C)C)NC(=O)O[C@@H]1C[C@H]1CCCCCc1nc3ccc(OC)cc3nc1O2)C(=O)NS(=O)(=O)C1CC1 [Example 20, (1aR,5S,8S,9S,10R,22aR)-5-tert-butyl-N-{(1R,2R)-1-[(cyclopropylsulfonyl)carbamoyl]-2-ethylcyclopropyl}-14-methoxy-9-methyl-3,6-dioxo-1,1a,3,4,5,6,9,10,18,19,20,21,22,22a-tetradecahydro-8H-7,10-methanocyclopropa[18,19][1,10,3,6]dioxadiazacyclononadecino[11,12-b]quinoxaline-8-carboxamide]",0.53
